In patent US10577610B2, “EpCAM aptamers and conjugates thereof” (Deakin University, priority 2015, dated 2020):
Values joined by “and” are separate entries in the source; they are usually repeats but may differ in a detail not shown here. Equal entries are not always repeated. [invdT] = inverted (3'-3') thymidine; {TYE665} = TYE665 fluorescent dye

Columns and labels:
mouse TfR = target: T1, mouse TfR (Mus musculus, UniProt Q62351); experiment: Flow cytometry binding assay on bEnd.3 cells (TfR-positive); settings: bEnd.3 (TfR-positive) cells, n=3
T1 construct: bEnd.3 cells, mouse cells positive for TfR; host or cells: bEnd.3 mouse cerebral endothelial cells
Experimental: In order to determine the binding affinity (equilibrium dissociation constant KD) of the aptamers. Binding assays were conducted to measure the binding to native EpCAM protein expressed on the cell surface. The aptamers were incubated with the cells at concentrations ranging from 0 nM to 400 nM. These were subsequently analysed by flow cytometry. Aptamers were thawed from storage (-20° C.) prior to use. These were then diluted via serial dilutions with phosphate buffered saline (PBS) in order to achieve the desired concentrations. PBS was supplemented with a MgCl2 concentration appropriate for the aptamer (1 mM for anti-TfR aptamers; 5 mM for conjugate aptamers). […] Concurrently, subcultured cells were incubated in blocking buffer (PBS with 10% FCS, 1 mg/mL BSA, 0.1 mg/mL tRNA) for 30 minutes. Following centrifugation, blocking buffer was removed and cells were resuspended in binding buffer (PBS with 10% FCS, 1 mg/mL BSA, 0.1 mg/mL tRNA). Cells (50 μL) were then incubated with the aptamers (50 μL) for 30 minutes at 37° C. at a range of concentrations (0 nM, 20 nM, 40 nM, 60 nM, 80 nM, 100 nM, 200 nM, 400 nM). Following this, cells were washed in 100 μL PBS three times before final resuspension for flow cytometry. Aptamers were incubated with the chosen cell lines (bEnd.3 cells, mouse cells positive for TfR; HEY cells, human ovarian cancer cell line positive for EpCAM; and MOLT4 human cells negative for both TfR and EpCAM) at a range of concentrations. Aptamer-bound cells were analysed using a FACS Canto II flow cytometer (Becton Dickinson), counting 10,000 events for each sample, in order to determine the binding affinity of the aptamers. […] The value for the auto fluorescent 0 nM concentration was subtracted from the other figures to account for background fluorescence (Li N et al (2009) Journal of Proteome Research 8(5):2438-48). […] The binding affinities of aptamers TfR1, TfR2, […] determined semi-quantitatively via flow cytometry, using bEnd.3 mouse cerebral endothelial cells as a Tf R-positive cell line and MOLT4 acute lymphoblastic leukaemia cells-which express the human TfR, but not the mouse TfR (Sutherland R et al (1981) PNAS 78(7):4515-9)-as a negative control. Three independent binding assays were performed for each aptamer against each cell line. […] Three independent binding assays were performed for these aptamer against all three cell lines (bEnd.3, HEY and MOLT4).

[1] = system: in vitro BBB model (bEnd.3 endothelial monolayer); experiment: Aptamer permeability across in vitro blood brain barrier model (HEY-bEnd.3 co-culture); format: in vitro ADME, mouse; settings: 2 μM in upper compartment, three hours
Experimental: In order to assess the ability of the TfR containing aptamers to pass through an endothelial cell monolayer via receptor mediated transport (RMT) an in vitro model of the BBB was produced as shown schematically in FIG. 1. Transwell inserts (polyethylene terephthalate (PET) with 0.4 μm diameter pores) within a 24-well plate (Corning) were incubated with 100 μL of 50% Collagen IV for 2 hours at 37° C. Flasks of bEnd.3 cells were trypsinised to generate a single-cell suspension, and counted using a haemocytometer and trypan blue to ensure that a sufficient proportion of cells were alive. These were then centrifuged and resuspended in media. Wells were filled with 800 μL of serum-free media and transwell inserts were placed on top. Cells were then seeded in 90 μL of serum-free media at a density of 1×10^6 cells/cm^2 and were allowed to incubate at 37° C. Cells were allowed to settle for 6 hours and then 60 μL of enhanced media (DMEM low glucose: Ham's F12 (1:1), (both serum-free) 550 nM hydrocortisone, 32 μM cAMP, 17.5 μM aminophylline, 1 μM retinoic acid, 5 μg/mL insulin, 2.75 μg/mL transferrin, 2.5 ng/mL sodium selenite, 100 ng/mL bFGF (basic fibroblast growth factor), 20 ng/mL EGF (epidermal growth factor)) (Wuest D M et al (2013) Journal of Neuroscience Methods 212(2):211-21) was added to the transwells. Media in both compartments were replaced the next day with enhanced media in order to supplement the growth of the monolayer.
HEY cells were subcultured and counted using a haemocytometer and trypan blue in order to assess the percentage of living cells. Subsequently, they were diluted in DMEM media at a concentration of 87 500 cells/mL. Media was removed from the bottom compartment of the in vitro BBB model and replaced with 800 μL of the HEY cell solution, seeding at 70 000 cells per well. These were allowed to incubate overnight. Next, media was removed from the upper compartment of the transwells and 100 μL of aptamer at a concentration of 2 μM was pipetted on top of the transwell membrane. […]

T1 sequence (Q62351 whole entry): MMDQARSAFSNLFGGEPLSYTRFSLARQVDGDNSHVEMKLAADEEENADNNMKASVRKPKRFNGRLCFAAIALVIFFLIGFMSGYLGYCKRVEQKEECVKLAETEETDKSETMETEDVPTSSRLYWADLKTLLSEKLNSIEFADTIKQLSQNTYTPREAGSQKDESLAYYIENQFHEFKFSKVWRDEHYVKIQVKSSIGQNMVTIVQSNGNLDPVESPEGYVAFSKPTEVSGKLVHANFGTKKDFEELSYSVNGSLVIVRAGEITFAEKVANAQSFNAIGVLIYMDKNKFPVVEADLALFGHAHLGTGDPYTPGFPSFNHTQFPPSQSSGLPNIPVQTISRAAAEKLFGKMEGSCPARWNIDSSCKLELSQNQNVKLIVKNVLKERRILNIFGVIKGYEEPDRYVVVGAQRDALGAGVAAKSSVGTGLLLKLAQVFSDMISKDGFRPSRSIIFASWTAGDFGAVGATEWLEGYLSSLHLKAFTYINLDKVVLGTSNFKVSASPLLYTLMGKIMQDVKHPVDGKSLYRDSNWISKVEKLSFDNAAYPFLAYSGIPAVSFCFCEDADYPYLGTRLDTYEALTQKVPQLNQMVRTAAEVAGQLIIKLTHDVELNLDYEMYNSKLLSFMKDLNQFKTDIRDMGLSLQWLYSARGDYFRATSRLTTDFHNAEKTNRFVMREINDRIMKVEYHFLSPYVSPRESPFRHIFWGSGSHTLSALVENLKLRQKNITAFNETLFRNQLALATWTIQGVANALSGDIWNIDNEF

Row | Substance | Kd (mouse TfR) | Internalisation into HEY cells in bottom compartment after incubation on in vitro BBB model [1]
1 | TfR3: version of TfR1 with scrambled binding loop sequence, SEQ ID NO:6 (DNA GCGTGGTACCACGC; DNA, 5' {TYE665}, 3' [invdT], backbone not given here) | 366 nM | –
2 | 5′-GCGCGGGCCCGCGCTAACGGAGGTTGCGTCCGT-3′ (GCGCGGGCCCGCGCTAACGGAGGTTGCGTCCGN; DNA sequence of aptamer conjugate Bi2; (33)..(33) n is t or 3′ inverted deoxythymidine (dT)) | 306 nM and 305 nM | observed to become internalised into the HEY cells
3 | Bi1: aptamer conjugate based on TfR1 and scrambled EpCAM binding loop, negative control, SEQ ID NO:8 (GCGCGTGCACGCGCTAACGGATTCCTTTTCCGN; listed as DNA, further chemistry not given here) | 1690 ± 1840 nM | not observed inside HEY cells
4 | 5′-GCGCGGTACCGCGCTAACGGAGGTTGCGTCCGT-3′ (GCGCGGTACCGCGCTAACGGAGGTTGCGTCCGN; listed as DNA, chemistry not given here) [Bi3] | 342 ± 78.3 nM | observed to become internalised into the HEY cells
